Measured values: publication PMC6941661 (Cell host & microbe, 2019)

Tested on: N9 NA of A/Shanghai/2/2013 (SH13) (H7N9), virus A/Shanghai/2/2013 (H7N9)-PR8-IDCDC-RG32A
Format: biochemical, Influenza A virus (A/Shanghai/2/2013(H7N9))

CC(=O)N[C@H]1[C@H]([C@H](O)[C@H](O)CO)OC(C(=O)O)=C[C@@H]1N=C(N)N [zanamivir]
IC50: 7.6 nM
